Assay results reported in patent US12370352B2, “Nasal and ophthalmic delivery of aqueous corticosteroid solutions” (CyDex Pharmaceuticals, Inc., priority 2007, dated 2025).

What was measured:
[1] = assay type: binding
Experimental: A composition of the invention can comprise SAE-CD, corticosteroid, aqueous liquid carrier, and an antihistamine. In some embodiments, the composition contains SAE-CD, budesonide, water (or aqueous buffer) and azelastine. Example 14 details the preparation of such a composition. Other solutions of azelastine in buffer with varying amounts of SAE-CD, in the absence of budesonide, were prepared and scanned by UV Spectrometer. The change in absorption as a function of SAE-CD concentration was plotted and used to determine the equilibrium binding constant of azelastine with SAE-CD, according to the Benesi-Hildebrand equation. […] The binding constant for budesonide under similar conditions was determined to be about 1000; therefore, azelastine will compete with budesonide, or another corticosteroid, for binding to SAE-CD. Accordingly, the amount of SAE-CD present can be increased to permit complete dissolution of both drugs.
(§1) The equilibrium binding constant of the corticosteroid can change when a second active agent is present in a composition of the invention. Since azelastine hydrochloride (AZ-HCl) has an approximately 10-fold higher binding constant for SBE-β-CD than does budesonide (BUD), the amount of SBE-β-CD present in an aqueous composition of the three needs to be sufficient to solubilize both drugs. Example 19 details a procedure for determination of the phase solubility of budesonide in the presence of varying amounts of azelastine. The results are depicted in FIGS. 11A (for SBE-β-CD) and 11B (for SBE-β-CD and SBE-γ-CD). […] FIG. 11B is a chart of the phase solubility of BUD as a function of SBE-β-CD or SBE-γ-CD concentration in solution using various different concentrations of AZ-HCl (1.00-2.75 mg.mL). […] Thus, increasing the amount of AZ-HCl in the solution decreases the overall solubility of BUD. […] Therefore, it is advantageous to prepare solution compositions of these combinations using SBE-γ-CD due to the efficiency of interaction so as to require less of one SAExCD versus another different SAEyCD to solubilize similar amounts of actives in the presence of each other.

[2] = assay type: binding; remark: listed apart in the source
Description: as §1

[3] = pH and temperature stability of azelastine with and without CAPTISOL (Example 16); assay type: physicochemical; settings: sixteen weeks, 25, 40, 60° C., pH 4, 5, 6
Description: SAE-CD is also capable of stabilizing a second active agent included in the composition. Example 16 details a procedure for evaluating the stability of azelastine in the presence of SAE-CD at varying temperatures and in solutions of different pH's. The results are depicted in FIGS. 10A to 10C. The SAE-CD stabilized the azelastine for the period of sixteen weeks regardless of the temperature or pH of the solution. The lower the temperature, the greater the stabilization.
The pH and temperature stability of an aqueous liquid composition comprising SAE-CD, azelastine, and buffer were determined as follows.
Stock citrate solutions (sodium citrate (3 mM) and citric acid solution (3 mM); 500 mL each) were prepared. The citrate solutions were combined and titrated to prepare stock buffered solutions (at least 150 mL each) having a pH of 4, 5, or 6. A stock solution of azelastine hydrochloride (5 mg/mL) in water was prepared. Assay solutions comprising CAPTISOL, azelastine and buffer were prepared by mixing CAPTISOL (1.4 g) and stock solution of azelastine (7.5 mL) in stock buffered solution (QS to final volume of 75 mL for each different pH). Assay solutions comprising azelastine and buffer were prepared by mixing stock solution of azelastine (7.5 mL) and stock buffered solution (67.5 mL, or QS to final volume of 75 mL). […]

[4] = 72 h

Structure (SMILES) | Equilibrium complex stability constant with SBE-β-CD [1] [M⁻¹] | Equilibrium complex stability constant with SBE-β-CD relative to SBE-γ-CD [1] | Equilibrium binding constant with CAPTISOL ([1]; pH 4.5) | Equilibrium complex stability constant with SBE-γ-CD [2] [M⁻¹] | Stability in the presence of SAE-CD [3] | Steroid solubility (intrinsic) [4] [µM]
CN1CCCC(n2nc(Cc3ccc(Cl)cc3)c3ccccc3c2=O)CC1 (stereo not drawn) [azelastine, 4-[(4-chlorophenyl)methyl]-2-(1-methylazepan-4-yl)-phthalazin-1-one] | ~10000 | about 5 times | approximately 10,000 | 2200 | stabilized | –
C[C@@H]1C[C@H]2[C@@H]3CCC4=CC(=O)C=C[C@]4(C)[C@@]3(Cl)[C@@H](O)C[C@]2(C)[C@@]1(O)C(=O)CCl [Mometasone, mometasone] | – | – | – | – | – | 0
